Data as given in US5523296A, “1,3-benzodioxole and 1,2-dialkoxybenzene derivatives as ocular hypotensive agents” (Allergan, Inc., priority 1994, dated 1996).

What was measured:
[1] = test system: intraocular pressure in dog eyes; test: intraocular pressure in eyes of dogs (pneumatonometry); assay type: in vivo, beagle dogs; settings: 6 hours after administr., dog eye
Method: The assay is descibed as follows: male and female beagle dogs weighing 10-15 kg had been trained for a minimum of 2 months so that intraocular pressure could be measured without the use of restraining devices. Intraocular pressure was measured by pneumatonometry using applanation tonometers (Alcon). One minute prior to tonometry, 25 μl of proparacaine (Allergan, Irvine Calif.) was applied to minimize ocular discomfort during the procedure. Determination of the effects of the compounds of the invention on intraocular pressure involved administration of 1 to 25 μl of solution of the compound to one eye and an equal volume of vehicle to the contralateral eye as a control.
The effect of the compounds of the invention to lower intraocular pressure in dog eyes, in accordance with the above-described assay is shown in Table 1 with respect to the following compounds: […]

Swiss 3T3 cells = test: inhibition of DNA synthesis: incorporation of tritium labeled thymidine into Swiss 3T3 cells; assay type: cell-based, mouse; settings: 22 hours incubation, 5 hours pulse-labeling, CPM per μg DNA, mean of quadruplicates, vehicle 2601
Method: In addition, compounds of the invention were also found to inhibit DNA synthesis as observed in an assay where the incorporation of tritium labeled thymidine into Swiss 3T3 cells is measured. The assay is described as follows.
Swiss mouse 3T3 cells were maintained in Dulbecco's modified Eagle's medium (DMEM) low glucose and supplemented with 10% fetal bovine serum FBS), 2 mM 1-glutamine and 1% antibiotic-antimycotic 100×. The cultures were incubated in 5% CO2 in air at 37° C. Confluent cultures were trypsinized and plated in quadruplicate cultures for experiments. Cells were plated at 1×10^5 cells per 35 mm well in DMEM containing 10% FBS in 6-well cluster plates and allowed to become confluent in 3 days. The cells were then made quiescent by washing them with Hank's balanced salt solution (HBSS) and incubating them for 24 hours in DMEM with 0.5% FBS. The cultures were then refed fresh DMEM containing 0.5% FBS and various concentrations of the test compounds. All compounds were dissolved in absolute ethanol, diluted with sterile filtered normal saline and added to the medium so that the final ethanol control cultures were incubated in medium containing 0.01% or less […]. […]
Pulse-labeling of the cultures consisted of collecting the conditioned, drug-treated or control containing media, then adding 1μ Ci/ml [^3 H]-TdR and incubating the cultures in the [^3 H]-TdR containing medium for 5 hours. […] Radioactivity was measured by liquid-scintillation counting using Beckman HP cocktail. […] After centrifugation as before, an aliquot of the supernatant containing [^3 H]-TdR incorporated into DNA (S2) was assayed for radioactivity by scintillation counting.
An aliquot of the remaining S2 supernatant was assayed for quantity of DNA by the diphenylamine method. […] Absorbance of the DNA standards and samples was measured in a Beckman Biomek spectrophotometer at 600 nm wavelength.
The data was expressed as CPM ([^3 H]-TdR incorporated into DNA) per μg DNA and the mean of the quadruplicate samples was obtained for each experiment. […]

SMILES	Change in IOP ([1]; 0.1 %)	further results
CCCCCC(O)c1cc2c(cc1CCCCCO)OCO2 (racemic) [Compound 3, (±)-5-[6-(1-hydroxy)hexyl]-1,3-benzodioxol-5-yl]-pentanol]	-4.2 mm of Hg	Change in IOP ([1]; 0.01 %): -3.0 mm of Hg
COC(=O)CCCCc1cc2c(cc1C(O)CCc1ccccc1)OCO2 (racemic) [Compound 1, (±)-Methyl5-[6-(1-hydroxy-3-phenylpropyl)]-1,3-benzodioxol-5-yl]-pentanoate]	-1.0 mm of Hg	
OCCCCCc1cc2c(cc1C(O)CCc1cccs1)OCO2 (racemic) [Compound 6, (±)-5-[[6-(1-hydroxy-3-(2-thienyl)propyl]-1,3-benzodioxolyl]pentanol]	-1.1 mm of Hg	
CCCCCC(O)c1cc(OC)c(OC)cc1CCCCC(=O)O (racemic) [Compound 4, (±)-5-[2-(1-Hydroxy)hexyl-4,5-dimethoxyphenyl-]-1-pentanoic acid]	-1.2 mm of Hg	
O=C(O)CCCCc1cc2c(cc1C(O)CCc1cccs1)OCO2 (racemic) [Compound 7, (±)-5-[[6-(1-hydroxy-3-(2-thienyl)propyl)]-1,3-benzodioxolyl]pentanoic acid]	-1.0 mm of Hg	
OCCCCCc1cc2c(cc1C(O)CCc1ccccc1)OCO2 (racemic) [Compound 2, (±)-5-[6-(1-hydroxy-3-phenylpropyl)]-1,3-benzodioxol-5yl]pentanol]	-1.25 mm of Hg	
CCCCCC(O)c1cc2c(cc1CCCCC(=O)O)OCO2 (racemic) [Compound 5, (±)-5-[6-(1-hydroxy)hexyl]-1,3-benzodioxol-5-yl]-pentanoic acid]		CPM ([3H]-TdR incorporated into DNA) (Swiss 3T3 cells; 10^-5 M): 1454 CPM; CPM ([3H]-TdR incorporated into DNA) (Swiss 3T3 cells; 10^-6 M): 1598 CPM; CPM ([3H]-TdR incorporated into DNA) (Swiss 3T3 cells; 10^-7 M): 2102 CPM
